The structures appear in SMILES notation.

18 compounds from US11661431B2, “Thienopyrrole compounds” (Gilead Sciences, Inc., priority 2021, dated 2023) can be followed below.

Experiment [1] concerns the target TLR7 (Homo sapiens (Human), UniProt Q9NYK1). In words: TLR7 human peripheral blood mononuclear cell (PBMC) cell-based assay (GS-986 as agonist; IL-6 and IFNα readout). Conditions: human PBMCs, TLR7 agonist GS-986 at 400 nM, 6 hours, antagonist potency; read-out: TLR-7 EC50. A digest of the protocol:
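Human PBMCs (100,000 cells/well) preincubated 1 h at 37 °C with antagonist in 10-point dose response, then stimulated with TLR7 agonist for a further 6 h at 37 °C, 5% CO2. Supernatant IL-6 and IFNα measured by electrochemiluminescence immunoassay.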

Experiment [2] has as its target TLR8 (Homo sapiens (Human), UniProt Q9NR97). In words: TLR8 human peripheral blood mononuclear cell (PBMC) cell-based assay (Compound A as agonist; TNFα and IL12p40 readout). The note with it: human PBMCs, TLR8 agonist Compound A at 800 nM, 6 hours, antagonist potency; read-out: TLR-8 EC50.

Sequence of TLR7 (Q9NYK1 27-1049): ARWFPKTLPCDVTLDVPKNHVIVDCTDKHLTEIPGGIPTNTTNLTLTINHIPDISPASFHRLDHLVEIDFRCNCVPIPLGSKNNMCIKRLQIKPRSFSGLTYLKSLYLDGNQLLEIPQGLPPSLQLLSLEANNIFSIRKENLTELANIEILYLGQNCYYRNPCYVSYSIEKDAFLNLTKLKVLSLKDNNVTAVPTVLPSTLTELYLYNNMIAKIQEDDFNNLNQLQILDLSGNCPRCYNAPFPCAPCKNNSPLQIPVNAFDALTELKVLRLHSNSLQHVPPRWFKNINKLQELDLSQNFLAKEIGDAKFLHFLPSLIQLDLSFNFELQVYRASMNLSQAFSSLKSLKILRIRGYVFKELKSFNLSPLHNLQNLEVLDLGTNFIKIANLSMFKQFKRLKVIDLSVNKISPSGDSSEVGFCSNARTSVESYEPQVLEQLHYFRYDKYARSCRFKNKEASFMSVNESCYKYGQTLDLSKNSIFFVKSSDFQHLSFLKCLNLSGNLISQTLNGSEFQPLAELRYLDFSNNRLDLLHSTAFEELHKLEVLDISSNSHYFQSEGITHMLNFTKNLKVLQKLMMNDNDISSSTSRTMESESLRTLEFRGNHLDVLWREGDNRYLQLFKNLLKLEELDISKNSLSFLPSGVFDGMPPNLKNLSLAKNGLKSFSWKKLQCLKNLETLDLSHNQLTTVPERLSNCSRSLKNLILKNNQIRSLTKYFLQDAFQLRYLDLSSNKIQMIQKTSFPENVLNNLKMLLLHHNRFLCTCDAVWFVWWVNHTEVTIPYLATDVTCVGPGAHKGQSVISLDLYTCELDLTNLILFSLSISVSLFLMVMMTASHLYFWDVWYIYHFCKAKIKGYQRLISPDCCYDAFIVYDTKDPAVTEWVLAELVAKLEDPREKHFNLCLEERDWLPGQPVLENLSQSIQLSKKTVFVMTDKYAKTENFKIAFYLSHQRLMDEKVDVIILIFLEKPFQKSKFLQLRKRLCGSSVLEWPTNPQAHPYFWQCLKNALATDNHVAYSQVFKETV
Sequence of TLR8 (Q9NR97 27-1041): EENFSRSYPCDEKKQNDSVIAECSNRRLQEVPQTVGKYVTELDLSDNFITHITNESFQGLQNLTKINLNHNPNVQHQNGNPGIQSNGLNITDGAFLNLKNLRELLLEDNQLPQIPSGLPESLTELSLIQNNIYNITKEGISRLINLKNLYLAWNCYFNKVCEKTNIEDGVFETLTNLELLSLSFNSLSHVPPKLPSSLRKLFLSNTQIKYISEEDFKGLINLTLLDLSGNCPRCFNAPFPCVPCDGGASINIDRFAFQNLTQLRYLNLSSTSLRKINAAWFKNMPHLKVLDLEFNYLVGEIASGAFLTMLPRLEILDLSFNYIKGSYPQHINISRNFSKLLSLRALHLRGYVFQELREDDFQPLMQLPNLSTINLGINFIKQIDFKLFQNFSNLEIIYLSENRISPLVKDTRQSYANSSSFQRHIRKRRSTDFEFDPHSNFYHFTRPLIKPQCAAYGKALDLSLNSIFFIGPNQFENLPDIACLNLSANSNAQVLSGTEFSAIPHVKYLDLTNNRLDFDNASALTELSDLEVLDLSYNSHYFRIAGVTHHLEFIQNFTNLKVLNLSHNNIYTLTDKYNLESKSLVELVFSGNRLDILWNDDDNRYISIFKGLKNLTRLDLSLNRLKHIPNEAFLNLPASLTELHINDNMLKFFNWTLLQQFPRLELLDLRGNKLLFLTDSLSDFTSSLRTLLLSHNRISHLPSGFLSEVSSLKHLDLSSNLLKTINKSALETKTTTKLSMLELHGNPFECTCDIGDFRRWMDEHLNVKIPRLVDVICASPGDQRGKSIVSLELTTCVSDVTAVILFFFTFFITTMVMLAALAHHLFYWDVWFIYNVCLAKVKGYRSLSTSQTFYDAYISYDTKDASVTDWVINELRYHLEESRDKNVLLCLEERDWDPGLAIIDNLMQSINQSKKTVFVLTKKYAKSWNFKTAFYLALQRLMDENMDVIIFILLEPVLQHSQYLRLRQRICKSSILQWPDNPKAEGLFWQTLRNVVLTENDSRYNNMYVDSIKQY

On to `Cc1c(C2CCN(C(=O)[C@H]3C[C@H](F)CN3)CC2)sc2[nH]c(-c3cc(C)c4ncnn4c3)c(C(C)C)c12` [Example 43], for which the values for the EC50 in experiment [1] and in experiment [2] were 0.32 nM and 19 nM, respectively.
In the same order, the values of `CO[C@H]1CN[C@@H](C(=O)N2CCC(c3sc4[nH]c(-c5cc(C)c6ncnn6c5)c(C(C)C)c4c3C)CC2)C1` [Example 44] are 0.37 nM and 13.1 nM.
For the compound `CO[C@@H]1CN[C@@H](C(=O)N2CCC(c3sc4[nH]c(-c5cc(C)c6ncnn6c5)c(C(C)C)c4c3C)CC2)C1` [Example 45], the figures for the concentration for a half-maximal effect (EC50) in experiment [1] and in experiment [2] were 0.13 nM and 15.6 nM, respectively.
In the same order, the values of `Cc1c(C2CCN(C(=O)[C@H]3CNCCO3)CC2)sc2[nH]c(-c3cc(C)c4ncnn4c3)c(C(C)C)c12` [Example 46] are 0.59 nM and 13 nM.
As to `Cc1c(C2CCN(C(=O)[C@@H]3CNCCO3)CC2)sc2[nH]c(-c3cc(C)c4ncnn4c3)c(C(C)C)c12` [Example 47], the half-maximal effective concentration (EC50) is 0.24 nM in experiment [1] and 14.1 nM in experiment [2].
The like results for `Cc1c(C2CCN(C(=O)[C@H]3COCCN3C)CC2)sc2[nH]c(-c3cc(C)c4ncnn4c3)c(C(C)C)c12` [Example 48] were, in that order, 0.29 nM and 19.7 nM.
In the same order, the values of `Cc1c(C2CCN(C(=O)[C@@H]3COCCN3C)CC2)sc2[nH]c(-c3cc(C)c4ncnn4c3)c(C(C)C)c12` [Example 49] are 1.12 nM and 27.9 nM.
Regarding `Cc1c(C2CCN(C(=O)CN3CCOCC3)CC2)sc2[nH]c(-c3cc(C)c4ncnn4c3)c(C(C)C)c12` [Example 50], the concentration for a half-maximal effect (EC50) in experiment [1] stood at 1.76 nM; in experiment [2] it was 35.9 nM.
The like results for `Cc1c(C2CCN(C(=O)C3(C)COCCN3)CC2)sc2[nH]c(-c3cc(C)c4ncnn4c3)c(C(C)C)c12` (stereo not drawn) [Example 51] were, in that order, 0.43 nM and 19.3 nM.
In the same order, the values of `Cc1c(-c2[nH]c3sc(C4CC5(C4)CN(C(=O)[C@H]4COCCN4)C5)c(C)c3c2C(C)C)cn2ncnc2c1C` [Example 52] are 2.08 nM and 1.12 nM.
Consider `Cc1c(C2CC3(C2)CN(C(=O)[C@H]2COCCN2)C3)sc2[nH]c(-c3cc(C)c4ncnn4c3)c(C(C)C)c12` [Example 53], for which the values for the half-maximal effective concentration (EC50) in experiment [1] and in experiment [2] were 0.27 nM and 2.42 nM, respectively.
Regarding `Cc1c(C2CCN(C(=O)C3COCC(C)(C)N3)CC2)sc2[nH]c(-c3cc(C)c4ncnn4c3)c(C(C)C)c12` (stereo not drawn) [Example 54], the EC50 in experiment [1] was 0.59 nM; in experiment [2], 19.8 nM.
The like results for `Cc1c(C2CCN(C(=O)C34COC(CN3)C4)CC2)sc2[nH]c(-c3cc(C)c4ncnn4c3)c(C(C)C)c12` (stereo not drawn) [Example 55] were, in that order, 0.23 nM and 16.6 nM.
In the same order, the values of `Cc1cc(-c2[nH]c3sc(C4CCN(C(=O)[C@H]5COCCN5)CC4)cc3c2C(C)C)cn2ncnc12` [Example 57] are 0.27 nM and 15.5 nM.
The like results for `Cc1c(C2CC3(CNC3)C2)sc2[nH]c(-c3cc(C)c4ncnn4c3)c(C(C)C)c12` [Example 58, 4-isopropyl-3-methyl-5-(8-methyl-[1,2,4]triazolo[1,5-a]pyridin-6-yl)-2-(2-azaspiro[3.3]heptan-6-yl)-6H-thieno[2,3-b]pyrrole] were, in that order, 0.24 nM and 1.74 nM.
Consider `Cc1c(C2CC3COCC(C2)N3)sc2[nH]c(-c3cc(C)c4ncnn4c3)c(C(C)C)c12` (stereo not drawn) [Example 59], for which the EC50 was found to be 2.97 nM in experiment [1] and 28.4 nM in experiment [2].
In the same order, the values of `Cc1c(-c2[nH]c3sc(C4CC5(CNC5)C4)c(C)c3c2C(C)C)cn2ncnc2c1C` [Example 60] are 1.81 nM and 0.93 nM.
In the case of `Cc1c(C2CCC3(CNC3)C2)sc2[nH]c(-c3cc(C)c4ncnn4c3)c(C(C)C)c12` (stereo not drawn) [Example 61], the results for the half-maximal effective concentration (EC50) in experiment [1] and in experiment [2] were 0.19 nM and 9.09 nM, respectively.

One may read the EC50 as the concentration at which the effect is half-maximal.
